“And” between values parts separate entries of the source, which are not always exact repeats. Equal entries are not always repeated. Where two headings read alike, the source gives them in different places.
Experiments:
[1] = Chick growth study; type: in vivo, broiler chicks; details: for response vs control in vivo at 50 ppm / response vs control in vivo at 10 ppm / response vs control in vivo at 40 ppm / response vs control in vivo at 49 ppm: Gallus gallus, feed or water, 408 h; for response vs control in vivo at 50 ppm: 50 ppm in feed; for feed conversion / weight gain: chickens; for response vs control in vivo at 10 ppm: 10 ppm in feed; for response vs control in vivo at 40 ppm: 40 ppm in feed; for response vs control in vivo at 49 ppm: 49 ppm in feed
Procedure: 512 Day old broiler chicks, selected for weight, health and sex, are housed in an environmentally controlled room with temperature at 37.7° and humidity at 40%. Chicks are fed ad libitum. Water is offered ad libitum. A corn or, preferably, rye basal ration is fed during the acclimation period (days 1 and 2), then, mixed with the compound under test or used as a control on days 3-17. Either 8 or 16 chicks are used for each test or control group.

[2] = system: swine ileal or cecal inoculum (filtrate of cannula material); assay: In vitro swine procedure (incubation of inoculum from cannulated swine, in vitro fistula procedure); parameters: species or system swine (Yorksire barrow)
[3] = days 3-17, read-out: Feed Gain (3-17 day)
[4] = days 3-17, read-out: Weight (17 day)
[5] = 166.67 ppm, 5 hours at 37°, blank control = 100%
[6] = 1.67 ppm, 5 hours at 37°, blank control = 100%
[7] = 16.67 ppm, 5 hours at 37°, blank control = 100%
[8] = 116.67 ppm, 5 hours at 37°, blank control = 100%
[9] = 50.0 (unit not given) in feed, days 3-17

Compound: COC(=O)NN=Cc1ccccn1 [drawing 12]
- response vs control in vivo at 50 ppm [1, 3]: 86.4%
- response vs control in vivo at 50 ppm [1, 4]: 119%

Compound: 3-azabicyclo[3.2.2]nonane-3-carbothioic acid 2-[1-(2-pyridyl)ethyl]hydrazide
- feed conversion ([1]; fed at 50 ppm): better feed conversion
- weight gain ([1]; fed at 50 ppm): increased weight gain

Compound: CC(=NNC(=S)N1CCCCCC1)c1ccccn1 [Compound 10]
- response vs control in vivo at 10 ppm [1, 3]: 92.3%
- response vs control in vivo at 10 ppm [1, 4]: 110%
- response vs control in vivo at 50 ppm [1, 3]: 80.6%
- response vs control in vivo at 50 ppm [1, 4]: 103%

Compound: CC(=NNC(N)=S)c1ccccn1 [drawing 5]
- GLU (glucose) [2, 5]: 147 % of Control Values
- LAC (L lactic acid) [2, 5]: 88 % of Control Values
- LYS (lysine) [2, 5]: 137 % of Control Values
- VFA (total of volatile fatty acids) [2, 5]: 43 % of Control Values

Compound: CC(=NNC(=S)N1CCCCC1)c1ccccn1 [drawing 9]
- response vs control in vivo at 10 ppm [1, 3]: 92.3%
- response vs control in vivo at 10 ppm [1, 4]: 110%
- response vs control in vivo at 50 ppm [1, 3]: 80.6%
- response vs control in vivo at 50 ppm [1, 4]: 103%

Compound: CC(=NNC(=S)N1CCCCCC1)c1ccccn1 [hexahydro-1H-azepine-1-carbothioic acid [1-(2-pyridinyl)-ethylidinyl]hydrazide]
- feed conversion ([1]; fed at 10 and 50 ppm): better feed conversion
- weight gain ([1]; fed at 10 and 50 ppm): increased weight gain

Compound: CC(=NNC(=S)N1CC2CCC(CC2)C1)c1ccccn1 [drawing 6]
- VFA (total of volatile fatty acids) [2]: 97 % of Control Values
- LYS (lysine) [2, 5]: 107 % of Control Values

Compound: COC(=O)NN=Cc1cccnc1
- response vs control in vivo at 50 ppm [1, 3]: 102%
- response vs control in vivo at 50 ppm [1, 4]: 98.4%

Compound: CC(=NNC(N)=S)c1ccccn1 [drawing 14]
- response vs control in vivo at 50 ppm [1, 3]: 91.2%
- response vs control in vivo at 50 ppm [1, 4]: 107%

Compound: COC(=O)NN=C(C)c1ccccn1 [drawing 13]
- response vs control in vivo at 50 ppm [1, 3]: 94%
- response vs control in vivo at 50 ppm [1, 4]: 110%

Compound: CSC(=S)NN=C(C)c1ccccn1 [drawing 16]
- response vs control in vivo at 40 ppm [1, 3]: 86.6%
- response vs control in vivo at 40 ppm [1, 4]: 72.8%

Compound: CC(=NNC(=S)N1CC2CCC(CC2)C1)c1ccccn1 [drawing 15]
- response vs control in vivo at 49 ppm [1, 3]: 84.1%
- response vs control in vivo at 49 ppm [1, 4]: 102%

Compound: COC(=O)NN=Cc1ccccn1 [drawing 4]
- LYS (lysine) [2, 6]: 65 % of Control Values
- VFA (total of volatile fatty acids) [2, 6]: 90 % of Control Values
- LYS (lysine) [2, 7]: 140 % of Control Values
- VFA (total of volatile fatty acids) [2, 7]: 104 % of Control Values
- LYS (lysine) [2, 5]: 109 % of Control Values
- VFA (total of volatile fatty acids) [2, 5]: 109 % of Control Values

Compound: COC(=O)NN=Cc1ccncc1
- response vs control in vivo at 40 ppm [1, 3]: 102%
- response vs control in vivo at 40 ppm [1, 4]: 96.9%

Compound: Virginiamycin [reference compound]
- GLU (glucose) [2]: 190 % of Control Values
- LAC (L lactic acid) [2, 8]: 17 % of Control Values
- LYS (lysine) [2, 8]: 171 % of Control Values
- VFA (total of volatile fatty acids) [2, 8]: 25 % of Control Values
- Feed Gain (3-17 day) [1, 9]: 85.0 % of Control
- Weight (17 day) [1, 9]: 118.9 % of Control

Compound: CC(=NNC(=S)N1CCCCC1)c1ccccn1 [drawing 2]
- LYS (lysine) [2, 5]: 23 % of Control Values and 18 % of Control Values
- VFA (total of volatile fatty acids) [2, 5]: 63 % of Control Values

Compound: CC(=NNC(=S)N1CC2CCC(CC2)C1)c1ccccn1 [drawing 8]
- response vs control in vivo at 50 ppm [1, 3]: 80.6%
- response vs control in vivo at 50 ppm [1, 4]: 103%

Compound: CSC(=S)NN=C(C)c1ccccn1 [drawing 7]
- GLU (glucose) [2, 5]: 95 % of Control Values
- LAC (L lactic acid) [2, 5]: 113 % of Control Values
- LYS (lysine) [2, 5]: 103 % of Control Values
- VFA (total of volatile fatty acids) [2, 5]: 89 % of Control Values

Compound: COC(=O)NN=C(C)c1ccccn1 [drawing 3]
- LYS (lysine) [2, 6]: 70 % of Control Values
- LYS (lysine) [2, 7]: 134 % of Control Values
- VFA (total of volatile fatty acids) [2, 7]: 94 % of Control Values
- LYS (lysine) [2, 5]: 99 % of Control Values
- VFA (total of volatile fatty acids) [2, 5]: 88 % of Control Values
